# According to publication PMC9578392, “Safety, Tolerability, and Pharmacokinetics of the Novel Antiviral Agent Ensitrelvir Fumaric Acid, a SARS-CoV-2 3CL Protease Inhibitor, in Healthy Adults” (Antimicrobial Agents and Chemotherapy, 2022):
# Experiments:
# [1] = Treatment-emergent adverse events, multiple dose (part 2); type: in vivo, human
# Protocol: In part 1, Japanese participants were randomized to receive placebo or single dose of ensitrelvir (20, 70, 250, 500, 1,000, and 2,000 mg given to cohorts A, B, C, D, E, and J, respectively), suspended in 0.5% methylcellulose, in the fasted state. Additionally, in cohort C, the effect of food on the pharmacokinetics of ensitrelvir was investigated in a 2-group, 2-period crossover design by administering placebo or ensitrelvir (250 mg) in the fasted or fed (high-fat/high-calorie) state. In part 2, Japanese participants were randomized to receive placebo or multiple doses of ensitrelvir, suspended in 0.5% methylcellulose. The multiple-dose regimens were as follows: once-daily doses of ensitrelvir 375 mg on day 1 and 125 mg on days 2 to 5 (cohort F), or 750 mg on day 1 and 250 mg on days 2 to 6 (cohort G) in the fasted state. White participants were randomized to receive placebo or multiple doses of ensitrelvir. The multiple-dose regimens were as follows: once-daily doses of ensitrelvir 375 mg on day 1 and 125 mg on days 2 to 5 (cohort H). Each cohort included 11 participants. In cohort G, the effect of ensitrelvir on the pharmacokinetics of midazolam (syrup) was evaluated in an open label self-controlled crossover design. Midazolam 2 mg alone was administered 2 days prior to initiating ensitrelvir administration (on day −2) and midazolam was coadministered on day 6 with placebo or ensitrelvir in the fasted state to participants following once-daily doses for 5 days of placebo (days 1 to 5) or ensitrelvir (750 mg on day 1 and 250 mg on days 2–5).
# The nature, frequency, and severity of TEAEs were evaluated and recorded.
# CYP3A = assay: Drug-drug interaction with midazolam (cohort G); settings: ensitrelvir 750/250 mg, from increase in AUC0-inf of midazolam
# [2] = Cohort G 750/250 mg + midazolam, Japanese, n = 8
# [3] = Cohort G 750/250 mg + midazolam, Japanese, n = 8, listed as ensitrelvir
# [4] = Cohort H 125 mg, white, n = 8, listed as ensitrelvir
smiles,measurement,setting,value
"Cn1cnc(Cn2c(=O)[nH]/c(=N\c3cc4cn(C)nc4cc3Cl)n(Cc3cc(F)c(F)cc3F)c2=O)n1 [Ensitrelvir, ensitrelvir fumaric acid]","Nausea, n (%)",[1]; [2],1 (12.5)
same,"Nervous system disorders, Events",[1]; [2],11
same,"Nervous system disorders, n (%)",[1]; [2],5 (62.5)
same,"Oropharyngeal pain, Events",[1]; [2],0
same,"Oropharyngeal pain, n (%)",[1]; [2],0
same,"Participants with any TEAE, Events",[1]; [2],33
same,"Participants with any TEAE, n (%)",[1]; [2],8 (100)
same,"Pyrexia, Events",[1]; [2],1
same,"Pyrexia, n (%)",[1]; [2],1 (12.5)
same,"Rash, Events",[1]; [2],1
same,"Rash, n (%)",[1]; [2],1 (12.5)
same,"Respiratory, thoracic, and mediastinal disorders, Events",[1]; [2],0
same,"Respiratory, thoracic, and mediastinal disorders, n (%)",[1]; [2],0
same,"Skin and subcutaneous tissue disorders, Events",[1]; [2],1
same,"Skin and subcutaneous tissue disorders, n (%)",[1]; [2],1 (12.5)
same,"Somnolence, Events",[1]; [2],4
same,"Somnolence, n (%)",[1]; [2],3 (37.5)
same,"Vomiting, Events",[1]; [2],1
same,"Vomiting, n (%)",[1]; [2],1 (12.5)
same,"Diarrhea, n (%)",[1]; [3],4/8
same,"Headache, n (%)",[1]; [3],4/8
same,"High-density lipoprotein cholesterol decreased, n (%)",[1]; [3],7/8
same,"Somnolence, n (%)",[1]; [3],3/8
same,"Abdominal pain, Events","[1]; Cohort H 125 mg, white, n = 8",1
same,"Abdominal pain, n (%)","[1]; Cohort H 125 mg, white, n = 8",1 (12.5)
same,"Blood creatine phosphate increased, Events","[1]; Cohort H 125 mg, white, n = 8",0
same,"Blood creatine phosphate increased, n (%)","[1]; Cohort H 125 mg, white, n = 8",0
same,"Blood triglyceride increased, Events","[1]; Cohort H 125 mg, white, n = 8",0
same,"Blood triglyceride increased, n (%)","[1]; Cohort H 125 mg, white, n = 8",0
same,"C-reactive protein increased, Events","[1]; Cohort H 125 mg, white, n = 8",0
same,"C-reactive protein increased, n (%)","[1]; Cohort H 125 mg, white, n = 8",0
same,"Diarrhea, Events","[1]; Cohort H 125 mg, white, n = 8",6
same,"Dizziness, Events","[1]; Cohort H 125 mg, white, n = 8",0
same,"Dizziness, n (%)","[1]; Cohort H 125 mg, white, n = 8",0
same,"Feeling hot, Events","[1]; Cohort H 125 mg, white, n = 8",0
same,"Feeling hot, n (%)","[1]; Cohort H 125 mg, white, n = 8",0
same,"Gastrointestinal disorders, Events","[1]; Cohort H 125 mg, white, n = 8",7
same,"Gastrointestinal disorders, n (%)","[1]; Cohort H 125 mg, white, n = 8",4 (50.0)
same,"General disorders and administration site conditions, Events","[1]; Cohort H 125 mg, white, n = 8",0
same,"General disorders and administration site conditions, n (%)","[1]; Cohort H 125 mg, white, n = 8",0
same,"Headache, Events","[1]; Cohort H 125 mg, white, n = 8",4
same,"Headache, n (%)","[1]; Cohort H 125 mg, white, n = 8",2 (25.0)
same,"High-density lipoprotein cholesterol decreased, Events","[1]; Cohort H 125 mg, white, n = 8",7
same,"High-density lipoprotein cholesterol decreased, n (%)","[1]; Cohort H 125 mg, white, n = 8",7 (87.5)
same,"Investigations, Events","[1]; Cohort H 125 mg, white, n = 8",7
same,"Investigations, n (%)","[1]; Cohort H 125 mg, white, n = 8",7 (87.5)
same,"Nausea, Events","[1]; Cohort H 125 mg, white, n = 8",0
same,"Nausea, n (%)","[1]; Cohort H 125 mg, white, n = 8",0
same,"Nervous system disorders, Events","[1]; Cohort H 125 mg, white, n = 8",4
same,"Nervous system disorders, n (%)","[1]; Cohort H 125 mg, white, n = 8",2 (25.0)
same,"Oropharyngeal pain, Events","[1]; Cohort H 125 mg, white, n = 8",1
same,"Oropharyngeal pain, n (%)","[1]; Cohort H 125 mg, white, n = 8",1 (12.5)
same,"Participants with any TEAE, Events","[1]; Cohort H 125 mg, white, n = 8",19
same,"Participants with any TEAE, n (%)","[1]; Cohort H 125 mg, white, n = 8",8 (100)
same,"Pyrexia, Events","[1]; Cohort H 125 mg, white, n = 8",0
same,"Pyrexia, n (%)","[1]; Cohort H 125 mg, white, n = 8",0
same,"Rash, Events","[1]; Cohort H 125 mg, white, n = 8",0
same,"Rash, n (%)","[1]; Cohort H 125 mg, white, n = 8",0
same,"Respiratory, thoracic, and mediastinal disorders, Events","[1]; Cohort H 125 mg, white, n = 8",1
same,"Respiratory, thoracic, and mediastinal disorders, n (%)","[1]; Cohort H 125 mg, white, n = 8",1 (12.5)
same,"Skin and subcutaneous tissue disorders, Events","[1]; Cohort H 125 mg, white, n = 8",0
same,"Skin and subcutaneous tissue disorders, n (%)","[1]; Cohort H 125 mg, white, n = 8",0
same,"Somnolence, Events","[1]; Cohort H 125 mg, white, n = 8",0
same,"Somnolence, n (%)","[1]; Cohort H 125 mg, white, n = 8",0
same,"Vomiting, Events","[1]; Cohort H 125 mg, white, n = 8",0
same,"Vomiting, n (%)","[1]; Cohort H 125 mg, white, n = 8",0
same,"Diarrhea, n (%)",[1]; [4],4/8
same,"Headache, n (%)",[1]; [4],2/8
same,"High-density lipoprotein cholesterol decreased, n (%)",[1]; [4],7/8
same,course of the decrease in HDL-C levels,[1]; single- and multiple-dose administration,transient and generally reverted to the baseline values
same,CYP3A inhibition classification,CYP3A,strong CYP3A inhibitor
